# Experimental data: article PMC12631437, “Evaluation of the Activity of 4‑Quinolones against Multi-Life Stages of Plasmodium spp” (ACS Omega, 2025)
# Like-named read-outs stand apart in the source and are kept apart here.
# Legend:
# [1] = system: Plasmodium falciparum 3D7 sensitive strain; test: SYBR Green growth assay, asexual blood stages, 3D7 sensitive strain; type: cell-based
# Protocol: Parasite strains SB1-A6, 7G8, V1/S, and HB3 were acquired from BEI-MR4, while the ATQ R1 strain, carrying a V259L gene mutation, was generated in-house. […] Parasitemia was monitored using Giemsa-stained blood smears.
# Bioassays were conducted with synchronized ring-stage parasites using sorbitol synchronization. Antimalarial compounds were evaluated in 96-well plates, and parasite growth was assessed using a SYBR Green-based fluorescence assay The assays were conducted when the parasite quantity reached at least 70% of the ring stage. Compounds were initially added at specific concentrations in the first wells, followed by serial dilution (1:2) ranging from 20 μM to 0.009 μM. Subsequently, a solution containing parasites in RPMI medium at a hematocrit of 2% was added to each well, and the parasites were then incubated for 72 h.
# The IC50 values were determined using concentration–response curves generated in GraphPad 8 software. Additionally, the resistance index was calculated by comparing IC50 values obtained for the sensitive 3D7 strain with those of the resistant strains.
# [2] = system: late-stage gametocytes (IV and V) of P. falciparum NF54; test: Late-stage gametocyte bioluminescence assay, luciferase-expressing NF54; type: cell-based, Plasmodium falciparum; settings: for Pf gametocytes inhibition: 1 μM; for inhibition at 20 µM: Plasmodium falciparum, NF54, 48 h, read-out: Pf gametocytes Inhibition (%)
# Protocol: For the in vitro culture of sexual stages of P. falciparum NF54 Luminescent strain, the Tripathi protocol was followed.
# Parasite asexual stages were synchronized, and ring-stage parasites were incubated with a parasite-conditioned medium to induce stress and trigger gametocyte induction. After sexually committed parasites invaded new erythrocytes, N-acetylglucosamine was added to prevent further invasion and clear residual asexual parasites.
# When a predominance of late stage (IV and V) gametocytes was identified and counted together, , the MACS magnetic system was used for gametocyte enrichment, as previously described. ,
# The column content was eluted with RPMI medium into a 15 mL Falcon tube until translucent medium appeared, yielding ∼ 10 mL of eluate. The sample was centrifuged at 1500 rpm for 5 min at 37 °C, the supernatant discarded, and the pellet washed with preheated RPMI medium containing albumax. A 1 μL pellet sample was used to prepare a Giemsa-stained smear for gametocytaemia determination by counting 2000 cells. The gametocytemia for each assay were 71%, 64% and 31%. The remaining pellet was adjusted to 1 mL with RPMI medium containing 10% human serum at 37 °C. Total cell counts were performed using a Neubauer chamber with a 10X diluted sample.
# Each well contained 200,000 gametocytes in 150 μL without erythrocytes. After 48 h of incubation, a luciferase kit (Promega) was used to reveal the assay. Eighty microliters of supernatant were discarded, and the pellet was homogenized in the remaining content. Forty microliters of the sample were transferred to a clear 96-well plate containing lysis solution (1X), gently mixed, and moved to a white-bottomed 96-well plate. Luciferase (40 μL) was added, and luminescence was measured using a microplate reader with a 10-s integration time.
# P. vivax ookinetes = test: Ex vivo P. vivax ookinete formation assay with patient isolates; type: cell-based, Plasmodium vivax; settings: 24 h
# Protocol: Participants were recruited from patients diagnosed with P. vivax malaria via Giemsa-stained blood smears at CEPEM in Porto Velho, Rondônia, Brazil (#28176720.9.0000.0011). Criteria included: P. vivax parasitemia >2000 parasites/μL, age 18–85, no severe malaria, no concomitant diseases, nonpregnant, and consent to study procedures. Approximately 10 mL of venous blood was collected into heparin-coated vials, maintained at 37 °C, and transported to PIVEM for DMFA. Malaria treatment followed Brazilian Ministry of Health guidelines and was unaffected by study participation. […] Erythrocytes were washed with incomplete RPMI-1640 medium by centrifugation at 1500 rpm for 10 min to remove leukocytes. […] The sample was centrifuged once at 450 g for 15 min without a brake. After centrifugation, the pellet remaining at the interface was collected and washed twice at 2000 g for 5 min. […] The parasites were incubated for 24 h at a temperature of 21–24 °C. After this period, the activity of the compounds was determined by microscopy, counting 100 fields to determine the parasitemia per μL in each sample, and counting the mature and immature ookinetes. […] Red blood cells were then washed with incomplete RPMI-1640 medium through centrifugation at 1500 rpm for 10 min to remove leukocytes. […] The sample was centrifuged once at 2000 rpm for 15 min without brake. After centrifugation, the remaining pellet at the interface was collected and washed twice at 2000 rpm for 5 min. […] Parasites were incubated for 24 h at a temperature of 21–24 °C. After this period, compound activity was determined by microscopy counting in 100 fields to determine parasitemia per μL in each sample.
# [3] = system: P. vivax oocysts and sporozoites in Anopheles darlingi; test: Direct membrane feeding assay (DMFA), P. vivax gametocytes, A. darlingi mosquitoes; type: in vivo, Plasmodium vivax; settings: for reduction of the density of sporozoites per mosquito: 14 days after feeding; for reduction in the oocyst density per mosquito midgut: day 7
# Protocol: Participants were recruited from patients diagnosed with P. vivax malaria via Giemsa-stained blood smears at CEPEM in Porto Velho, Rondônia, Brazil (#28176720.9.0000.0011). Criteria included: P. vivax parasitemia >2000 parasites/μL, age 18–85, no severe malaria, no concomitant diseases, nonpregnant, and consent to study procedures. Approximately 10 mL of venous blood was collected into heparin-coated vials, maintained at 37 °C, and transported to PIVEM for DMFA. Malaria treatment followed Brazilian Ministry of Health guidelines and was unaffected by study participation.
# Anopheles darlingi mosquitoes are maintained in the PIVEM insectary at Fiocruz Rondônia since 2018. Mosquitoes were raised at a temperature of 26 °C ± 1 °C and a relative humidity of 70 ± 10%, being fed a 15% honey solution.
# Before the DMFA, female mosquitoes were starved of sucrose overnight. Six P. vivax isolates were used, and 40–100 mosquitoes per group were fed P. vivax-infected blood for 30 min using a Hemotek membrane feeder at 37 °C. Unfed mosquitoes were removed, and engorged ones were maintained for sporogony, receiving a 15% honey solution refreshed every 2 days. Midguts were dissected on day 7 and salivary glands on day 14 postblood feeding, to assess midgut oocyst load and salivary gland sporozoite load, respectively.
# Mosquitoes were anesthetized on ice, immersed in 70% ethanol, and dissected in PBS. Midguts were stained with 0.2% mercurochrome and examined microscopically for oocysts. Salivary glands were pooled (5 mosquitoes per sample), and homogenized in 15 μL RPMI, and sporozoites were counted using a Neubauer chamber.
# [4] = Plasmodium falciparum, 3D7, 72 h, asexual blood stages, 3D7 sensitive strain, 72 h, read-out: IC50
# [5] = asexual blood stages, 3D7 sensitive strain, 72 h, read-out: IC50
# [6] = 20 μM, 48 h, late-stage (IV and V) gametocytes
# [7] = Plasmodium vivax, read-out: P. vivax ookinete formation inhibition (median)
Structure (SMILES),"IC50 ([1]; Plasmodium falciparum, 3D7, 3D7, strain assigned by order of panels, read-out: IC50 (Figure S1))","IC50 [1, 4]","IC50 [1, 5]",Pf gametocytes inhibition [2],"inhibition at 20 µM [2, 6]","inhibition at 0.4 µM (P. vivax ookinetes; Plasmodium vivax, 0.4 μM, read-out: P. vivax ookinete formation inhibition (median))",inhibition at 2 µM (P. vivax ookinetes; [7]),"inhibition at 10 µM (P. vivax ookinetes; Plasmodium vivax, 10 μM, n = 6 patients, read-out: P. vivax ookinete formation inhibition (median))",reduction of infection prevalence ([3]; 2 μM),reduction of the density of sporozoites per mosquito ([3]; 2 μM),reduction in the oocyst density per mosquito midgut ([3]; 2 μM),reduction of infection prevalence ([3]; 10 μM),reduction in the oocyst density per mosquito midgut ([3]; 10 μM),"Pf gametocytes Inhibition (%) [2, 6]",P. vivax ookinete formation inhibition (median) (P. vivax ookinetes; 0.4 μM),reduction of the density of sporozoites per mosquito ([3]; 10 μM)
"CCCCCCCCCCCc1cc(=O)c2ccccc2[nH]1 [compound 1, 2-Undecilquinolin-4(1H)-one]",270 nM,210 ± 40 nM,200 ± 100 nM,no activity,44 ± 4%,70%,84%,97%,31%,39%,74%,71%,95%,–,–,–
"CCCCCCOc1ccc(-c2cc(=O)c3ccccc3[nH]2)cc1 [compound 6, 2-(4-(Hexyloxy)-phenyl)-quinolin-4(1H)-one]",–,560 ± 70 nM,500 nM,no activity,64%,–,83%,–,–,31%,29%,–,53%,68 ± 25%,no activity,10%
